Experimental data taken from paper PMC13453992, “Comparison of ex vivo placenta perfusion and in vitro BeWo b30 cell models for assessing transfer of developmental and reproductive toxic compounds” (Archives of Toxicology, 2026).

Experiment: Fraction unbound in placental perfusion buffer by Rapid Equilibrium Dialysis
Assay type: in vitro ADME
Conditions: placenta perfusion buffer with albumin; RED 4 hours at 37 °C
Protocol: Free drug concentrations in perfusion buffer were determined using Rapid Equilibrium Dialysis (RED) single use plates (ThermoScientific, Rockford, USA) according to the manufacturer’s instructions. In short, placental perfusion buffer samples from multiple timepoints were loaded on one side of the RED and clean placenta perfusion buffer without albumin was added to the other side. This was incubated on a ThermoMixer C (Eppendorf Nederland B.V., Nijmegen, The Netherlands) at 250 rpm for 4 hours at 37 °C. The average from all measurements was taken to determine the average fraction unbound for each ex vivo placenta perfusion experiment.

Question: Which Fraction unbound does the source give for `Cc1cc(=O)n(-c2ccccc2)n1C` [Antipyrine, antipyrine] here?
Answer: 95 ± 2%
